Target: T1, human P2X4 (Homo sapiens, UniProt Q99571)
T1 sequence (Q99571 1-388): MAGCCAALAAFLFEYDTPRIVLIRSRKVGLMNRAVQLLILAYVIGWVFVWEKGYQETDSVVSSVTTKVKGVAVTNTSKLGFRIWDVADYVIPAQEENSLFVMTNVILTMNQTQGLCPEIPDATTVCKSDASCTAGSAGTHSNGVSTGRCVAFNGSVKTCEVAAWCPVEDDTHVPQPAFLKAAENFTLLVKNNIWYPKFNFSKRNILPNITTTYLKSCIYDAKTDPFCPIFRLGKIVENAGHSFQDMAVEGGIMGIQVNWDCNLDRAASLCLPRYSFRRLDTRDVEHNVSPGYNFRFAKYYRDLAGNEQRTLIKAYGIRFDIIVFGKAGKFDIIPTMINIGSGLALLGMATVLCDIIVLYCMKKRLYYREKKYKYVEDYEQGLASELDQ
Experiment: Human P2X4 HEK Cell FLIPR Assay
Type: cell-based
Details: agonist Bz-ATP at EC80; for Emax: HEK293, HEK293 cells, percentage of maximal inhibition, read-out: Human P2X4 HEK Cells (FLIPR Assay) avg Efficacy [%]; for IC50: HEK293 cells, individual values listed where some fall outside detection range
Procedure, shortened: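 Calcium flux read by FLIPR for 120 sec after Bz-ATP challenge at EC80 (established each assay day), following 30 min room-temperature compound preincubation in dye-loaded stable human P2X4 HEK293 cells. Peak RFU over basal normalized to agonist control; IC50, maximal inhibition and Hill coefficient from triplicate means.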

Emax	IC50	Compound
90%	153 nM	NS(=O)(=O)c1cc(NC(=O)Cc2ccccc2OC(F)F)ccc1-n1cc(F)cn1 [Example 157, 2-[2-(Difluoromethoxy)phenyl]-N-[4-(4-fluoro-1H-pyrazol-1-yl)-3-sulfamoylphenyl]-acetamide]
89%	2600 nM	NS(=O)(=O)c1cc(NC(=O)Cc2cccnc2Cl)ccc1-n1cc(F)cn1 [Example 158, 2-(2-Chloropyridin-3-yl)-N-[4-(4-fluoro-1H-pyrazol-1-yl)-3-sulfamoylphenyl]acetamide]
82%	12 nM	Cc1ccc(F)c(CC(=O)Nc2ccc(-n3cc(F)cn3)c(S(N)(=O)=O)c2)c1Cl [Example 159, 2-(2-Chloro-6-fluoro-3-methylphenyl)-N-[4-(4-fluoro-1H-pyrazol-1-yl)-3-sulfamoyl-phenyl]acetamide]
89%	58 nM	NS(=O)(=O)c1cc(NC(=O)Cc2ccccc2OC(F)(F)F)ccc1-n1cc(F)cn1 [Example 160, N-[4-(4-Fluoro-1H-pyrazol-1-yl)-3-sulfamoylphenyl]-2-[2-(trifluoromethoxy)phenyl]-acetamide]
43%	> 25000 nM	NS(=O)(=O)c1cc(NC(=O)Cc2cc(F)c(F)cc2Cl)ccc1-n1cc(F)cn1 [Example 161, 2-(2-Chloro-4,5-difluorophenyl)-N-[4-(4-fluoro-1H-pyrazol-1-yl)-3-sulfamoylphenyl]]
92%	19 nM	NS(=O)(=O)c1cc(NC(=O)Cc2cccc(C(F)(F)F)c2Cl)ccc1-n1cc(F)cn1 [Example 162, 2-[2-Chloro-3-(trifluoromethyl)phenyl]-N-[4-(4-fluoro-1H-pyrazol-1-yl)-3-sulfamoyl-phenyl]acetamide]
89%	93 nM	NS(=O)(=O)c1cc(NC(=O)Cc2cc(Cl)ccc2Cl)ccc1-n1cc(F)cn1 [Example 163, 2-(2,5-Dichlorophenyl)-N-[4-(4-fluoro-1H-pyrazol-1-yl)-3-sulfamoylphenyl]acetamide]
83%	27 nM	NS(=O)(=O)c1cc(NC(=O)Cc2c(F)ccc(F)c2Cl)ccc1-n1cc(F)cn1 [Example 164, 2-(2-Chloro-3,6-difluorophenyl)-N-[4-(4-fluoro-1H-pyrazol-1-yl)-3-sulfamoylphenyl]-acetamide]
93%	42 nM	Cc1ccc(Cl)c(CC(=O)Nc2ccc(-n3cc(F)cn3)c(S(N)(=O)=O)c2)c1 [Example 165, 2-(2-Chloro-5-methylphenyl)-N-[4-(4-fluoro-1H-pyrazol-1-yl)-3-sulfamoylphenyl]-acetamide]
78%	1520 nM	Cc1cc(F)c(Br)cc1CC(=O)Nc1ccc(-n2cc(F)cn2)c(S(N)(=O)=O)c1 [Example 166, 2-(5-Bromo-4-fluoro-2-methylphenyl)-N-[4-(4-fluoro-1H-pyrazol-1-yl)-3-sulfamoylphenyl]acetamide]
94%	64 nM	CC(C)c1ccccc1CC(=O)Nc1ccc(-n2cc(F)cn2)c(S(N)(=O)=O)c1 [Example 167, N-[4-(4-Fluoro-1H-pyrazol-1-yl)-3-sulfamoylphenyl]-2-(2-isopropylphenyl)acetamide]
75%	70 nM	NS(=O)(=O)c1cc(NC(=O)Cc2cc(F)ccc2Cl)ccc1-n1cc(F)cn1 [Example 168, 2-(2-Chloro-5-fluorophenyl)-N-[4-(4-fluoro-1H-pyrazol-1-yl)-3-sulfamoylphenyl]-acetamide]
86%	85 nM	NS(=O)(=O)c1cc(NC(=O)Cc2c(Cl)cccc2C(F)(F)F)ccc1-n1cc(F)cn1 [Example 169, 2-[2-Chloro-6-(trifluoromethyl)phenyl]-N-[4-(4-fluoro-1H-pyrazol-1-yl)-3-sulfamoyl-phenyl]acetamide]
90%	2240 nM	CC(C(=O)Nc1ccc(-n2cc(F)cn2)c(S(N)(=O)=O)c1)c1c(F)cccc1F (stereo not drawn) [Example 171, 2-(2,6-Difluorophenyl)-N-[4-(4-fluoro-1H-pyrazol-1-yl)-3-sulfamoylphenyl]-propanamide]
58%	48 nM	Cc1ccc(CC(=O)Nc2ccc(-n3cc(Cl)cn3)c(S(N)(=O)=O)c2)cc1 [Example 172, N-[4-(4-Chloro-1H-pyrazol-1-yl)-3-sulfamoylphenyl]-2-(4-methylphenyl)acetamide]
80%	28 nM	Cc1ccccc1CC(=O)Nc1ccc(-n2cc(Cl)cn2)c(S(N)(=O)=O)c1 [Example 173, N-[4-(4-Chloro-1H-pyrazol-1-yl)-3-sulfamoylphenyl]-2-(2-methylphenyl)acetamide]
79%	45 nM	Cc1cccc(CC(=O)Nc2ccc(-n3cc(Cl)cn3)c(S(N)(=O)=O)c2)c1 [Example 174, N-[4-(4-Chloro-1H-pyrazol-1-yl)-3-sulfamoylphenyl]-2-(3-methylphenyl)acetamide]

Emax	IC50	Compound
88%	226 nM	CCOc1ccccc1CC(=O)Nc1ccc(-n2cc(Cl)cn2)c(S(N)(=O)=O)c1 [Example 175, N-[4-(4-Chloro-1H-pyrazol-1-yl)-3-sulfamoylphenyl]-2-(2-ethoxyphenyl)acetamide]
71%	268 nM	CCOc1ccccc1CC(=O)Nc1ccc(-n2cc(C(F)(F)F)cn2)c(S(N)(=O)=O)c1 [Example 176, 2-(2-Ethoxyphenyl)-N-{3-sulfamoyl-4-[4-(trifluoromethyl)-1H-pyrazol-1-yl]phenyl}acetamide]
83%	35 nM	NS(=O)(=O)c1cc(NC(=O)Cc2ccccc2Br)ccc1-n1cc(F)cn1 [Example 177, 2-(2-Bromophenyl)-N-[4-(4-fluoro-1H-pyrazol-1-yl)-3-sulfamoylphenyl]acetamide]
70%	40 nM	NS(=O)(=O)c1cc(NC(=O)Cc2ccc(Cl)cc2Cl)ccc1-n1cc(F)cn1 [Example 178, 2-(2,4-Dichlorophenyl)-N-[4-(4-fluoro-1H-pyrazol-1-yl)-3-sulfamoylphenyl]acetamide]
89%	35 nM	NS(=O)(=O)c1cc(NC(=O)Cc2c(Cl)cccc2Cl)ccc1-n1cc(F)cn1 [Example 179, 2-(2,6-Dichlorophenyl)-N-[4-(4-fluoro-1H-pyrazol-1-yl)-3-sulfamoylphenyl]acetamide]
77%	319 nM	N#Cc1cnn(-c2ccc(NC(=O)Cc3ccccc3[N+](=O)[O-])cc2S(N)(=O)=O)c1 [Example 180, N-[4-(4-Cyano-1H-pyrazol-1-yl)-3-sulfamoylphenyl]-2-(2-nitrophenyl)acetamide]
59%	179 nM	N#Cc1cnn(-c2ccc(NC(=O)Cc3ccc(Cl)cc3)cc2S(N)(=O)=O)c1 [Example 181, 2-(4-Chlorophenyl)-N-[4-(4-cyano-1H-pyrazol-1-yl)-3-sulfamoylphenyl]acetamide]
89%	161 nM	COc1ccccc1CC(=O)Nc1ccc(-n2cc(C#N)cn2)c(S(N)(=O)=O)c1 [Example 182, N-[4-(4-Cyano-1H-pyrazol-1-yl)-3-sulfamoylphenyl]-2-(2-methoxyphenyl)acetamide]
96%	39 nM	N#Cc1cnn(-c2ccc(NC(=O)Cc3c(F)cccc3Cl)cc2S(N)(=O)=O)c1 [Example 183, 2-(2-Chloro-6-fluorophenyl)-N-[4-(4-cyano-1H-pyrazol-1-yl)-3-sulfamoylphenyl]-acetamide]
96%	67 nM	N#Cc1cnn(-c2ccc(NC(=O)Cc3ccccc3C(F)(F)F)cc2S(N)(=O)=O)c1 [Example 184, N-[4-(4-Cyano-1H-pyrazol-1-yl)-3-sulfamoylphenyl]-2-[2-(trifluoromethyl)-phenyl]acetamide]
71%	248 nM	N#Cc1cnn(-c2ccc(NC(=O)Cc3cccc(F)c3)cc2S(N)(=O)=O)c1 [Example 185, N-[4-(4-Cyano-1H-pyrazol-1-yl)-3-sulfamoylphenyl]-2-(3-fluorophenyl)acetamide]
78%	40 nM	N#Cc1cnn(-c2ccc(NC(=O)Cc3ccc(Cl)cc3Cl)cc2S(N)(=O)=O)c1 [Example 186, N-[4-(4-Cyano-1H-pyrazol-1-yl)-3-sulfamoylphenyl]-2-(2,4-dichlorophenyl)acetamide]
84%	33 nM	N#Cc1cnn(-c2ccc(NC(=O)Cc3c(Cl)cccc3Cl)cc2S(N)(=O)=O)c1 [Example 187, N-[4-(4-Cyano-1H-pyrazol-1-yl)-3-sulfamoylphenyl]-2-(2,6-dichlorophenyl)acetamide]
89%	31 nM	N#Cc1cnn(-c2ccc(NC(=O)Cc3ccccc3Br)cc2S(N)(=O)=O)c1 [Example 188, 2-(2-Bromophenyl)-N-[4-(4-cyano-1H-pyrazol-1-yl)-3-sulfamoylphenyl]acetamide]
60%	199 nM	N#Cc1cnn(-c2ccc(NC(=O)Cc3ccc(F)c(F)c3)cc2S(N)(=O)=O)c1 [Example 189, N-[4-(4-Cyano-1H-pyrazol-1-yl)-3-sulfamoylphenyl]-2-(3,4-difluorophenyl)acetamide]
58%	540 nM	N#Cc1cnn(-c2ccc(NC(=O)Cc3cc(F)cc(F)c3)cc2S(N)(=O)=O)c1 [Example 190, N-[4-(4-Cyano-1H-pyrazol-1-yl)-3-sulfamoylphenyl]-2-(3,5-difluorophenyl)acetamide]

Source: US11524938B2, “Aromatic sulfonamide derivatives” (Bayer Pharma Aktiengesellschaft, priority 2016, dated 2022)
